Laboratory results published in PubChem BioAssay AID256 (DTP/NCI, 2004).
Several values for one entry are separate records, joined by “and”; a condition that tells them apart may be missing. Identical values can stand only once. Inconclusive results and toxic doses are left out.

Tested on: CD2F1 mice, L1210 leukemia ip, survival T/C
Assay: NCI In Vivo Anticancer Drug Screen. Data for tumor model L1210 Leukemia (intraperitoneal) in CD2F1 (CDF1) mice
Details: endpoint: mean survival time, higher = longer survival
Summary of the method: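 Compound-dosed mice with transplantable tumor versus matched vehicle controls; endpoint ratio T/C reported.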

[1] = dose: 100.0 mg/kg/injection, schedule: Q04DX003 (ip), vehicle: saline with Tween-80
[2] = dose: 200.0 mg/kg/injection, schedule: Q04DX003 (ip), vehicle: saline with Tween-80
[3] = dose: 400.0 mg/kg/injection, schedule: Q04DX003 (ip), vehicle: saline with Tween-80
[4] = dose: 3.13 mg/kg/injection, schedule: Q01DX005 (ip), vehicle: water
[5] = dose: 100.0 mg/kg/injection, schedule: Q04DX002 (ip), vehicle: saline
[6] = dose: 200.0 mg/kg/injection, schedule: Q04DX002 (ip), vehicle: saline
[7] = dose: 100.0 mg/kg/injection, schedule: Q01DX001 (ip), vehicle: saline with Tween-80
[8] = dose: 100.0 mg/kg/injection, schedule: Q04DX002 (ip), vehicle: saline with Tween-80
[9] = dose: 200.0 mg/kg/injection, schedule: Q01DX001 (ip), vehicle: saline with Tween-80
[10] = dose: 200.0 mg/kg/injection, schedule: Q04DX002 (ip), vehicle: saline with Tween-80
[11] = dose: 400.0 mg/kg/injection, schedule: Q04DX002 (ip), vehicle: saline with Tween-80
[12] = dose: 100.0 mg/kg/injection, schedule: Q01DX009 (ip), vehicle: saline with Tween-80
[13] = dose: 200.0 mg/kg/injection, schedule: Q01DX009 (ip), vehicle: saline with Tween-80

## CC(=O)OCC(C)CCC(C)C(C)C1C(C)CC2C3CC=C4CC(OC(C)=O)CCC4(C)C3CCC21C (stereo not given)
dose: 12.5 mg/kg/injection, schedule: Q01DX009 (ip), vehicle: Klucel (hydroxypropylcellulose) (HPC)
  T/C: 104 % of control
dose: 25.0 mg/kg/injection, schedule: Q01DX009 (ip), vehicle: Klucel (hydroxypropylcellulose) (HPC)
  T/C: 101 % of control
dose: 50.0 mg/kg/injection, schedule: Q01DX009 (ip), vehicle: Klucel (hydroxypropylcellulose) (HPC)
  T/C: 101 % of control

## Nc1nc(N)c2nc(CN(CCO)c3ccc(C(=O)NC(CCC(=O)O)C(=O)O)cc3)cnc2n1 (stereo not given)
dose: 2.0 mg/kg/injection, schedule: Q01DX009 (ip), vehicle: Klucel (hydroxypropylcellulose) (HPC)
  T/C: 162 % of control
dose: 4.0 mg/kg/injection, schedule: Q01DX009 (ip), vehicle: Klucel (hydroxypropylcellulose) (HPC)
  T/C: 190 % of control
dose: 8.0 mg/kg/injection, schedule: Q01DX009 (ip), vehicle: Klucel (hydroxypropylcellulose) (HPC)
  T/C: 171 % of control

## O=C(O)c1ccccc1SCCO
dose: 100.0 mg/kg/injection, schedule: Q01DX001 (ip), vehicle: Klucel (hydroxypropylcellulose) (HPC)
  T/C: 93 % of control
dose: 200.0 mg/kg/injection, schedule: Q01DX001 (ip), vehicle: Klucel (hydroxypropylcellulose) (HPC)
  T/C: 102 % of control
dose: 400.0 mg/kg/injection, schedule: Q01DX001 (ip), vehicle: Klucel (hydroxypropylcellulose) (HPC)
  T/C: 104 % of control

## O=C1NN=C(C2CCCCC2)C12CCCCC2
[1]
  T/C: 96 % of control
[2]
  T/C: 100 % of control
[3]
  T/C: 94 % of control

## CC(=O)c1cc(C)c[n+](C2OC(COC(=O)c3ccccc3)C(OC(=O)c3ccccc3)C2O)c1 (stereo not given)
[4]
  T/C: 100 % of control
dose: 6.25 mg/kg/injection, schedule: Q01DX005 (ip), vehicle: water
  T/C: 98 % of control
dose: 12.5 mg/kg/injection, schedule: Q01DX005 (ip), vehicle: water
  T/C: 106 % of control
dose: 25.0 mg/kg/injection, schedule: Q01DX005 (ip), vehicle: water
  T/C: 93 % of control
dose: 50.0 mg/kg/injection, schedule: Q01DX005 (ip), vehicle: water
  T/C: 100 % of control and 101 % of control
dose: 100.0 mg/kg/injection, schedule: Q01DX005 (ip), vehicle: water
  T/C: 93 % of control

## O=S(=O)(O)c1ccccc1O
dose: 100.0 mg/kg/injection, schedule: Q01DX009 (ip), vehicle: saline
  T/C: 101 % of control

## COc1cc(/C=N/n2cnnc2)cc(OC)c1OC
[1]
  T/C: 101 % of control
[2]
  T/C: 95 % of control
[3]
  T/C: 96 % of control

## CCC[CH2][Sn]1([CH2]CCC)[O]C2C(CO)OC(n3ccc4c(N)ncnc43)C2[O]1 (stereo not given)
dose: 0.39 mg/kg/injection, schedule: Q01DX005 (ip), vehicle: water
  T/C: 97 % of control
dose: 0.78 mg/kg/injection, schedule: Q01DX005 (ip), vehicle: water
  T/C: 103 % of control
dose: 1.56 mg/kg/injection, schedule: Q01DX005 (ip), vehicle: other
  T/C: 111 % of control
dose: 1.56 mg/kg/injection, schedule: Q01DX005 (ip), vehicle: water
  T/C: 90 % of control
dose: 3.13 mg/kg/injection, schedule: Q01DX005 (ip), vehicle: other
  T/C: 95 % of control
[4]
  T/C: 106 % of control

## CC(C)CCCC(C)C1CCC2C3CC=C4CC(O)CCC4(C)C3CCC12C (stereo not given) (tested in a mixture with another compound)
dose: 12.5 mg/kg/injection, schedule: Q01DX009 (ip), vehicle: water
  T/C: 102 % of control
dose: 25.0 mg/kg/injection, schedule: Q01DX009 (ip), vehicle: water
  T/C: 100 % of control
dose: 50.0 mg/kg/injection, schedule: Q01DX009 (ip), vehicle: water
  T/C: 102 % of control

## N#CSCc1cc(Cl)c(CSC#N)c(Cl)c1Cl
dose: 75.0 mg/kg/injection, schedule: Q04DX003 (ip), vehicle: saline
  T/C: 101 % of control
dose: 150.0 mg/kg/injection, schedule: Q04DX003 (ip), vehicle: saline
  T/C: 96 % of control
dose: 300.0 mg/kg/injection, schedule: Q04DX003 (ip), vehicle: saline
  T/C: 97 % of control

## CN(C)c1nc(N)nc(-c2cc[n+]([O-])cc2)n1
[5]
  T/C: 103 % of control
[6]
  T/C: 88 % of control

## C=C1C(=O)OC2/C=C(\C)CC/C=C(/C)CC(OC(=O)/C(=C/CO)CO)C12 (stereo not given)
dose: 10.0 mg/kg/injection, schedule: Q01DX009 (ip), vehicle: Klucel (hydroxypropylcellulose) (HPC)
  T/C: 96 % of control
dose: 20.0 mg/kg/injection, schedule: Q01DX009 (ip), vehicle: Klucel (hydroxypropylcellulose) (HPC)
  T/C: 100 % of control
dose: 40.0 mg/kg/injection, schedule: Q01DX009 (ip), vehicle: Klucel (hydroxypropylcellulose) (HPC)
  T/C: 95 % of control

## CCN1/C(=C/C(C)=C/c2sc3ccc4ccccc4c3[n+]2CC)Sc2ccc3ccccc3c21
dose: 0.02 mg/kg/injection, schedule: Q01DX009 (ip), vehicle: Klucel (hydroxypropylcellulose) (HPC)
  T/C: 101 % of control
dose: 0.03 mg/kg/injection, schedule: Q01DX009 (ip), vehicle: Klucel (hydroxypropylcellulose) (HPC)
  T/C: 100 % of control
dose: 0.05 mg/kg/injection, schedule: Q01DX009 (ip), vehicle: Klucel (hydroxypropylcellulose) (HPC)
  T/C: 113 % of control and 97 % of control
dose: 0.1 mg/kg/injection, schedule: Q01DX009 (ip), vehicle: Klucel (hydroxypropylcellulose) (HPC)
  T/C: 100 % of control and 110 % of control
dose: 0.2 mg/kg/injection, schedule: Q01DX009 (ip), vehicle: Klucel (hydroxypropylcellulose) (HPC)
  T/C: 103 % of control and 104 % of control
dose: 0.4 mg/kg/injection, schedule: Q01DX009 (ip), vehicle: Klucel (hydroxypropylcellulose) (HPC)
  T/C: 105 % of control and 107 % of control
dose: 0.8 mg/kg/injection, schedule: Q01DX009 (ip), vehicle: Klucel (hydroxypropylcellulose) (HPC)
  T/C: 119 % of control and 104 % of control

## O=C(NCCS)Nc1ccccc1
[7]
  T/C: 102 % of control
[8]
  T/C: 104 % of control
[1]
  T/C: 94 % of control
[9]
  T/C: 98 % of control
[10]
  T/C: 96 % of control
[2]
  T/C: 86 % of control and 91 % of control
[11]
  T/C: 96 % of control
[3]
  T/C: 86 % of control and 92 % of control

## C(=C\CN(Cc1ccccc1)Cc1ccccc1)/CN(Cc1ccccc1)Cc1ccccc1
dose: 100.0 mg/kg/injection, schedule: Q01DX009 (ip), vehicle: Klucel (hydroxypropylcellulose) (HPC)
  T/C: 95 % of control
dose: 200.0 mg/kg/injection, schedule: Q01DX009 (ip), vehicle: Klucel (hydroxypropylcellulose) (HPC)
  T/C: 97 % of control

## CS/C([S-])=N/[NH-].CS/C([S-])=N/[NH-].[Pd]
[7]
  T/C: 107 % of control
[9]
  T/C: 103 % of control

## CCCCOC(=O)c1c(C(=O)OCCCC)c(-c2ccccc2)c2c(c1-c1ccccc1)-c1cccc3cccc-2c13
[8]
  T/C: 97 % of control
[10]
  T/C: 86 % of control
[11]
  T/C: 90 % of control

## CN(C)CCOc1ccccc1Cc1ccccc1
dose: 50.0 mg/kg/injection, schedule: Q01DX009 (ip), vehicle: saline with Tween-80
  T/C: 104 % of control
[12]
  T/C: 119 % of control
[1]
  T/C: 98 % of control
[13]
  T/C: 107 % of control
[2]
  T/C: 97 % of control

## CCNC(C)(C)C(SS)c1ccc(C(F)(F)F)cc1 (stereo not given)
[1]
  T/C: 88 % of control
[2]
  T/C: 90 % of control
[3]
  T/C: 93 % of control

## C/C(=C/c1ccc([N+](=O)[O-])cc1)C(=O)O
[7]
  T/C: 103 % of control
[9]
  T/C: 100 % of control
dose: 400.0 mg/kg/injection, schedule: Q01DX001 (ip), vehicle: saline with Tween-80
  T/C: 103 % of control

## Nc1nc(N)c2nc(CSc3ccc(C(=O)NC(CCC(=O)O)C(=O)O)cc3)cnc2n1 (stereo not given)
dose: 1.5 mg/kg/injection, schedule: Q01DX009 (ip), vehicle: distilled water + Tween-80
  T/C: 96 % of control
dose: 3.0 mg/kg/injection, schedule: Q01DX009 (ip), vehicle: distilled water + Tween-80
  T/C: 86 % of control
dose: 6.0 mg/kg/injection, schedule: Q01DX009 (ip), vehicle: distilled water + Tween-80
  T/C: 100 % of control and 101 % of control
dose: 12.0 mg/kg/injection, schedule: Q01DX009 (ip), vehicle: distilled water + Tween-80
  T/C: 115 % of control and 110 % of control
dose: 24.0 mg/kg/injection, schedule: Q01DX009 (ip), vehicle: distilled water + Tween-80
  T/C: 117 % of control and 120 % of control

## Cc1ccnc(N)c1.[Cl-].[Cl-].[Cl-].[Cl-].[Pt+2]
dose: 25.0 mg/kg/injection, schedule: Q04DX003 (ip), vehicle: saline with Tween-80
  T/C: 106 % of control
dose: 50.0 mg/kg/injection, schedule: Q04DX003 (ip), vehicle: saline with Tween-80
  T/C: 101 % of control

## CC(C)C1OCC(C)(C)C(C(C)C)O1 (stereo not given)
[5]
  T/C: 107 % of control
[6]
  T/C: 110 % of control
dose: 400.0 mg/kg/injection, schedule: Q04DX002 (ip), vehicle: saline
  T/C: 96 % of control

## CCCCCCCCCCCCCCCCCC[Se]CCCCCCCCCCCCCCCCCC
[12]
  T/C: 89 % of control
[13]
  T/C: 91 % of control
dose: 400.0 mg/kg/injection, schedule: Q01DX009 (ip), vehicle: saline with Tween-80
  T/C: 95 % of control
